Laboratory results as given in patent US8846746B2, “Pyrazole compound and pharmaceutical use thereof” (Japan Tobacco Inc., priority 2011, dated 2014).

biological target: human SGLT1 (Homo sapiens (Human), UniProt P13866); assay: SGLT1 inhibitory activity: 14C-AMG uptake into CHO-K1 cell line stably expressing human SGLT1; format: cell-based; details: 14C-AMG uptake, CHO-K1 cells expressing human SGLT1
How it was run: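 CHO-K1 cells stably expressing human SGLT1 were pre-incubated 20 min in Na(−) buffer (pH 7.4). Test compound in Na(+) buffer with BSA was added with ¹⁴C-AMG (8 kBq) plus unlabelled AMG (2 mM in the added solution) for 1 h at 37 °C.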

Chain of human SGLT1 (P13866 whole entry): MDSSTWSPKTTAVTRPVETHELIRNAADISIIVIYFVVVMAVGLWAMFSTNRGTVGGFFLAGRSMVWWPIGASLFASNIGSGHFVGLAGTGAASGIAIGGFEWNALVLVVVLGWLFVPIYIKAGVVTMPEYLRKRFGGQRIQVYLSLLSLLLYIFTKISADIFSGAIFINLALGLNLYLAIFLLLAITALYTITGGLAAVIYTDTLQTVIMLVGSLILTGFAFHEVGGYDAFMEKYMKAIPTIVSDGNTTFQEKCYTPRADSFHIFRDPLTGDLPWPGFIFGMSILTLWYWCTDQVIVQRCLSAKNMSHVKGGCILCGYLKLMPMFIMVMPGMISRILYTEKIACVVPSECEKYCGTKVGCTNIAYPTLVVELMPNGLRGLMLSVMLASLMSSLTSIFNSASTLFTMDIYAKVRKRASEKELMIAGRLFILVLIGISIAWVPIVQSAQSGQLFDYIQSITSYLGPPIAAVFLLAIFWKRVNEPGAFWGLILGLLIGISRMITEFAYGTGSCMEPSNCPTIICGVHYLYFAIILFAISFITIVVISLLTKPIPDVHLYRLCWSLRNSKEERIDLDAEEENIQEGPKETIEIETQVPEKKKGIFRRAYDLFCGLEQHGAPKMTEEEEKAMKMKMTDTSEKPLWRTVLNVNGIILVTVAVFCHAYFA

| IC50 | Compound |
| --- | --- |
| 0.2 µM | O=C1CCC(C(=O)Nc2cc(-c3cccc(OC(F)(F)F)c3)n(C3CCOCC3)n2)CN1 (single isomer, unassigned) [Example 189] |
| 0.054 µM | C[C@H]1C(=O)NC[C@@H]1C(=O)Nc1cc(-c2cccc(OC(F)(F)F)c2)n(CCC(F)(F)F)n1 [Example 191] |
| 0.0014 µM | Cc1cccc(-n2nc(NC(=O)[C@H]3CNC(=O)C3)cc2-c2cccc(C(C)(C)C)c2)c1 [Example 127] |
| 0.0029 µM | C[C@H]1C(=O)NC[C@@H]1C(=O)Nc1cc(-c2cccc(OC(F)(F)F)c2)n(-c2ccccc2F)n1 [Example 166] |
| 20.1 µM | O=C1C[C@@H](C(=O)Nc2cc(-c3cccc(OC(F)(F)F)c3)n(-c3ccc(F)cc3F)n2)CN1 [Example 183] |
| 0.011 µM | COC(C)(C)c1cccc(-c2cc(NC(=O)[C@@H]3CNC(=O)C3)nn2-c2ccccc2)c1 [Example 83] |
| 0.13 µM | CCCc1cccc(-c2cc(NC(=O)C3CNC(=O)C3)nn2CC)c1 (racemic) [Example 24] |
| 0.0013 µM | C[C@H]1C(=O)NC[C@@H]1C(=O)Nc1cc(-c2cccc(OC(F)(F)F)c2)n(-c2ccccc2Cl)n1 [Example 193] |
| 0.0065 µM | CCC(F)(F)c1cccc(-c2cc(NC(=O)[C@H]3CNC(=O)C3)nn2CCC(C)(C)C)c1 [Example 143] |
| 0.15 µM | CCCc1cccc(-c2cc(NC(=O)C3CC(=O)NC3C)nn2-c2ccccc2)c1 (single isomer, unassigned) [Example 20] |
| 0.02 µM | Cc1ccc(-n2nc(NC(=O)[C@H]3CNC(=O)C3)cc2-c2cccc(OC(F)(F)F)c2)cc1 [Example 233] |
| 0.0072 µM | CCCc1cccc(-c2cc(NC(=O)[C@H]3CNC(=O)N3C)nn2-c2ccccc2)c1 [Example 6, (R)-3-methyl-2-oxoimidazolidine-4-carboxylic acid [1-phenyl-5-(3-propylphenyl)-1H-pyrazol-3-yl]amide] |
| 0.024 µM | O=C1C[C@H](C(=O)Nc2cc(-c3cccc(OC(F)(F)F)c3)n(-c3ccccc3)n2)CN1 [Example 29] |
| 0.14 µM | CC1(C)CCCC(c2cc(NC(=O)[C@H]3CNC(=O)C3)nn2-c2ccccc2)C1 (single isomer, unassigned) [Example 89] |
| 0.0072 µM | CC(C)(C)c1cccc(-c2cc(NC(=O)[C@H]3CNC(=O)C3)nn2C2CCCCCC2)c1 [Example 84] |
| 0.0034 µM | CC(C)C(F)(F)c1cccc(-c2cc(NC(=O)[C@H]3CNC(=O)C3)nn2-c2ccc(Cl)cc2)c1 [Example 158] |
| 0.0068 µM | CCCc1cccc(-c2cc(NC(=O)[C@H]3CNC(=O)C3)nn2-c2ccc(F)cc2)c1 [Example 34] |
| 0.0022 µM | CCCc1cccc(-c2cc(NC(=O)[C@H]3CNC(=O)C3)nn2-c2ccccc2C)c1 [Example 102] |
| 0.0093 µM | C[C@H]1C(=O)NC[C@@H]1C(=O)Nc1cc(-c2cccc(OC(F)(F)F)c2)n(-c2ccc(Cl)cc2)n1 [Example 152] |
| 9.3 µM | O=C1C[C@@H](C(=O)Nc2cc(-c3cccc(O)c3)n(-c3ccccc3)n2)CN1 [Example 118] |
| 0.013 µM | O=C1C[C@@H](C(=O)Nc2cc(-c3cccc(OC(F)(F)F)c3)n(-c3cccc(F)c3)n2)CN1 [Example 157] |
| 0.018 µM | CCCc1cccc(-c2cc(NC(=O)[C@@H]3CNC(=O)C3)nn2C2CCCCCC2)c1 [Example 69] |
| 0.25 µM | CCCCCCn1nc(NC(=O)C2CNC(=O)C2)cc1-c1ccccc1 (racemic) [Example 13] |
| 0.036 µM | O=C1CCC(C(=O)Nc2cc(-c3cccc(OC(F)(F)F)c3)n(-c3cccc(F)c3)n2)CN1 (single isomer, unassigned) [Example 168] |

same assay, conditions: 14C-AMG uptake, CHO-K1 cells stably expressing human SGLT1

| Compound | IC50 |
| --- | --- |
| C[C@@H](OCc1cc(F)cc(-c2cc(NC(=O)[C@H]3CNC(=O)N3)nn2-c2ccc(F)cc2)c1)C(F)(F)F [Example 240, (R)-2-oxoimidazolidine-4-carboxylic acid{1-(4-fluorophenyl)-5-[3-fluoro-5-((R)-2,2,2-trifluoro-1-methylethoxymethyl)phenyl]-1H-pyrazol-3-yl}amide] | 0.02 µM |
| C[C@@H](OCc1cc(Cl)cc(-c2cc(NC(=O)[C@@H]3CNC(=O)C3)nn2-c2ccccc2)c1)C(F)(F)F [Example 241, (S)-5-oxopyrrolidine-3-carboxylic acid{5-[3-chloro-5-((R)-2,2,2-trifluoro-1-methylethoxymethyl)phenyl]-1-phenyl-1H-pyrazol-3-yl}amide] | 0.00995 µM |
| C[C@@H](OCc1cccc(-c2cc(NC(=O)[C@@H]3CNC(=O)C3)nn2-c2ccc(Cl)cc2)c1)C(F)(F)F [Example 244, (S)-5-oxopyrrolidine-3-carboxylic acid{1-(4-chlorophenyl)-5-[3-((R)-2,2,2-trifluoro-1-methylethoxymethyl)phenyl]-1H-pyrazol-3-yl}amide] | 0.008 µM |
| COC(C)(C)c1cccc(-c2cc(NC(=O)[C@@H]3CNC(=O)N3)nn2-c2ccccc2)c1 [Example 270] | 0.045 µM |
| O=C1NC[C@H](C(=O)Nc2cc(-c3cccc(OC(F)(F)F)c3)n(-c3ccccc3)n2)O1 [Example 264] | 0.039 µM |

Second part, the compound after the results:

| IC50 | Compound |
| --- | --- |
| 0.045 µM | CC(C)(C)CCOc1cccc(-c2cc(NC(=O)C3CCC(=O)NC3)nn2-c2ccccc2)c1 (single isomer, unassigned) [Example 342] |
| 0.0051 µM | CCC(C)(C)Oc1cccc(-c2cc(NC(=O)[C@@H]3CNC(=O)C3)nn2-c2ccccc2)c1 [Example 291] |
| 0.027 µM | COc1cc(F)cc(-n2nc(NC(=O)[C@@H]3CNC(=O)C3)cc2-c2cccc(OC(F)(F)F)c2)c1 [Example 524] |
| 0.0052 µM | C[C@@H](OCc1cccc(-c2cc(NC(=O)[C@@H]3CNC(=O)C3)nn2-c2cccc(F)c2)c1)C(F)(F)F [Example 469] |
| 0.047 µM | CCCc1cccc(-c2cc(NC(=O)[C@@H]3CNC(=O)C3)nn2-c2c(C)cccc2C)c1 [Example 325] |
| 0.0047 µM | CCCc1cccc(-c2cc(NC(=O)[C@H]3CNC(=O)N3CC)nn2-c2ccccc2)c1 [Example 303] |
| 0.031 µM | CCCc1cccc(-c2cc(NC(=O)[C@@H]3CNC(=O)C3)nn2-c2ccccc2OC)c1 [Example 376] |
| 0.069 µM | O=C1C[C@H](C(=O)Nc2cc(-c3cccc(CNCC(F)(F)F)c3)n(-c3ccccc3)n2)CN1 [Example 501] |
| 0.015 µM | COc1cccc(-n2nc(NC(=O)[C@@H]3CNC(=O)C3)cc2-c2cccc(OC(F)(F)F)c2)c1 [Example 442] |
| 0.0028 µM | CC(C)Oc1cc(F)cc(-n2nc(NC(=O)[C@@H]3CNC(=O)C3)cc2-c2cccc(CO[C@H](C)C(F)(F)F)c2)c1 [Example 535] |
| 0.00525 µM | CCCc1cccc(-c2cc(NC(=O)[C@@H]3CNC(=O)C3)nn2-c2cccc(OCC)c2)c1 [Example 379] |
| 0.0042 µM | COc1cccc(-n2nc(NC(=O)[C@@H]3CNC(=O)C3)cc2-c2cccc(CO[C@H](C)C(F)(F)F)c2)c1F [Example 484] |
| 0.00235 µM | CC(C)Oc1cc(-n2nc(NC(=O)[C@@H]3CNC(=O)C3)cc2-c2cccc(COCC(F)(F)F)c2)ccc1F [Example 418] |
| 0.0027 µM | CCCc1cccc(-c2cc(NC(=O)[C@H]3CNC(=O)N3CCOC)nn2-c2ccccc2)c1 [Example 346] |
| 0.0115 µM | C[C@@H](OCc1cccc(-c2cc(NC(=O)[C@H]3CNC(=O)O3)nn2-c2ccccc2)c1)C(F)(F)F [Example 367] |
| 0.0053 µM | CCCc1cccc(-c2cc(NC(=O)[C@@H]3CNC(=O)C3)nn2-c2ccc(OC(C)C)cc2)c1 [Example 373] |
| 0.006 µM | CCCc1cccc(-c2cc(NC(=O)C3CNC(=O)C3CC)nn2-c2ccccc2)c1 (single isomer, unassigned) [Example 307] |
| 0.012 µM | CC(C)(OCc1cc(Cl)cc(-c2cc(NC(=O)[C@@H]3CNC(=O)C3)nn2-c2ccc(F)cc2)c1)C(F)(F)F [Example 581] |
| 0.024 µM | C[C@@H](OCc1cc(F)cc(-c2cc(NC(=O)[C@@H]3CCC(=O)N3)nn2-c2ccccc2)c1)C(F)(F)F [Example 555] |
| 0.011 µM | C[C@@H](OCc1cccc(-c2cc(NC(=O)C3CCC(=O)NC3)nn2-c2ccccc2)c1)C(F)(F)F (stereo partly shown) [Example 565] |
| 0.02 µM | CCOc1cc(-n2nc(NC(=O)[C@@H]3CNC(=O)C3)cc2-c2cccc(OC(F)(F)F)c2)ccc1F [Example 421] |
| 0.07 µM | CCCc1cccc(-c2cc(NC(=O)[C@@H]3CNC(=O)C3)nn2-c2cccc(CCC(C)(C)C)c2)c1 [Example 498] |
| 0.047 µM | COc1cc(-n2nc(NC(=O)[C@@H]3CNC(=O)C3)cc2-c2cccc(OC(F)(F)F)c2)ccc1F [Example 420] |
| 0.0033 µM | CCCc1cccc(-c2cc(NC(=O)[C@@H]3CNC(=O)C3)nn2-c2cccc(CCC)c2)c1 [Example 497] |
| 0.038 µM | CCCOCc1cccc(-c2cc(NC(=O)[C@@H]3CNC(=O)C3)nn2-c2ccccc2)c1 [Example 300] |
| 0.021 µM | CCOCc1cccc(-c2cc(NC(=O)[C@H]3CNC(=O)C3)nn2-c2ccccc2)c1 [Example 285] |
| 0.0083 µM | O=C1C[C@H](C(=O)Nc2cc(-c3cc(F)cc(COCC(F)(F)F)c3)n(-c3ccccc3Cl)n2)CN1 [Example 510] |
| 0.013 µM | CCCc1cccc(-c2cc(NC(=O)[C@@H]3CNC(=O)C3)nn2-c2ccc(OCC(F)(F)F)cc2)c1 [Example 375] |
| 0.014 µM | CC(C)(OCc1cccc(-c2cc(NC(=O)[C@@H]3CNC(=O)C3)nn2-c2ccccc2)c1)C(F)(F)F [Example 352] |
| 0.018 µM | O=C1C[C@H](C(=O)Nc2cc(-c3cc(F)cc(COCC(F)(F)F)c3)n(-c3ccccc3)n2)CN1 [Example 488] |

same assay, conditions: CHO-K1, at 0.1 uM

| inhibition at 0.1 µM | Compound |
| --- | --- |
| 48% | C[C@@H](OCc1cc(F)cc(-c2cc(NC(=O)[C@@H]3CNC(=O)C3)nn2C2CCOCC2)c1)C(F)(F)F [Example 583] |
| 29% | CC(C)(C)S(=O)(=O)c1cccc(-c2cc(NC(=O)[C@@H]3CNC(=O)C3)nn2-c2ccccc2)c1 [Example 569] |
| 41% | CCCc1cccc(-c2cc(NC(=O)C3CNC(=O)NC3)nn2-c2ccccc2)c1 [Example 251] |
| 29% | CCCc1cccc(-c2cc(NC(=O)C3CC(=O)NC3C)nn2-c2ccccc2)c1 (stereo not shown) [Example 405] |
| 15% | O=C1C[C@H](C(=O)Nc2cc(-c3cccc(CO[C@@H]4CCOC4)c3)n(-c3ccccc3)n2)CN1 [Example 536] |
